Reference: patent US20230061608A1, “SUBSTITUTED QUINOLINONYL PIPERAZINE COMPOUNDS USEFUL AS T CELL ACTIVATORS” (BRISTOL-MYERS SQUIBB COMPANY, priority 2019, published 2023)

Experiments:
DGKα = molecular target: T1, DGKα (Homo sapiens, UniProt P23743); test: In vitro DGK inhibition assay, DGKα LIPGLO (extruded liposomes); assay type: biochemical; settings: liposome (LIPGLO) assay, 150 μM ATP, 5 nM enzyme
T1 construct: made in house; host or cells: Sf9 insect cells, baculovirus (Bac-to-Bac)
Experimental: (§1) Assay 1: In vitro DGK Inhibition Assays—Method A
(§2) The DGKα and DGKζ reactions were performed using extruded liposomes (DGKα and DGKζ LIPGLO assays). The reactions were carried out in 50 mM MOPS pH 7.5, 100 mM NaCl, 10 mM MgCl2, 1 μM CaCl2), and 1 mM DTT (assay buffer). The lipid substrate concentrations were 2 mM PS, 0.25 mM DAG, and 2.75 mM PC for the extruded liposome reactions. The reactions were carried out in 150 μM ATP. The enzyme concentrations for the DGKα and DGKζ were 5 nM.
(§3) The compound inhibition studies were carried out as follows: 50 nL droplets of each test compound (top concentration 10 mM with 11 point, 3-fold dilution series for each compound) solubilized in DMSO were transferred to wells of a white 1536 well plate (Corning 3725). A 5 mL enzyme/substrate solution at 2× final reaction concentration was prepared by combining 2.5 mL 4× enzyme solution (20 nM DGKα or DGKζ (prepared as described below) in assay buffer) and 2.5 mL of 4× liposome solution (compositions described below) and incubated at room temperature for 10 minutes. Next, 1 μL 2× enzyme/substrate solution was added to wells containing the test compound and reactions were initiated with the addition of 1 μL 300 uM ATP. The reactions were allowed to proceed for 1 hr, after which 2 μL Glo Reagent (Promega V9101) was added and incubated for 40 minutes. Next, 4 μL Kinase Detection Reagent was added and incubated for 30 minutes. Luminescence was recorded using an EnVision microplate reader. The percent inhibition was calculated from the ATP conversion generated by no enzyme control reactions for 100% inhibition and vehicle-only reactions for 0% inhibition. The compounds were evaluated at 11 concentrations to determine IC50.
(§4) The lipid composition was 5 mol % DAG (Avanti 8008110), 40 mol % PS (Avanti 840035P), and 55 mol % PC (Avanti 850457) at a total lipid concentration of 15.2 mg/mL for the 4× liposome solution. The PC, DAG, and PS were dissolved in chloroform, combined, and dried in vacuo to a thin film. The lipids were hydrated to 20 mM in 50 mM MOPS pH 7.5, 100 mM NaCl, 5 mM MgCl2, and were freeze-thawed five times. The lipid suspension was extruded through a 100 nm polycarbonate filter eleven times. Dynamic light scattering was carried out to confirm liposome size (50-60 nm radius). The liposome preparation was stored at 4° C. for as long as four weeks.
(§5) Human DGK-alpha-TVMV-His-pFBgate and human DGK-zeta-transcript variant-2-TVMV-His-pFBgate baculovirus samples were generated using the Bac-to-Bac baculovirus expression system (Invitrogen) according to the manufacturer's protocol. The DNA used for expression of DGK-alpha and DGK-zeta have SEQ ID NOs: 1 and 3, respectively. Baculovirus amplification was achieved using infected Sf9 cells at 1:1500 virus/cell ratios, and grown for 65 hours at 27° C. post-transfection.
(§6) Full length human DGKα and DGKζ, each expressed containing a TVMV-cleavable C-terminal Hexa-His tag sequence (SEQ ID NOs: 2 and 4, respectively) and produced as described above, were purified from Sf9 baculovirus-infected insect cell paste. The cells were lysed using nitrogen cavitation method with a nitrogen bomb (Parr Instruments), and the lysates were clarified by centrifugation. The clarified lysates were purified to ˜90% homogeneity, using three successive column chromatography steps on an ÄKTA Purifier Plus system. The three steps column chromatography included nickel affinity resin capture (i.e. HisTrap FF crude, GE Healthcare), followed by size exclusion chromatography (i.e. HiLoad 26/600 Superdex 200 prep grade, GE Healthcare for DGK-alpha, and HiPrep 26/600 Sephacryl S 300_HR, GE Healthcare for DGK-zeta). The third step was ion exchange chromatography, and differed for the two isoforms. DGKα was polished using Q-Sepharose anion exchange chromatography (GE Healthcare). DGKζ was polished using SP Sepharose cation exchange chromatography (GE Healthcare). The proteins were delivered at concentrations of ≥2 mg/mL. […]

DGKζ = molecular target: T2, DGKζ (Homo sapiens, UniProt Q13574); test: In vitro DGK inhibition assay, DGKζ LIPGLO (extruded liposomes); assay type: biochemical; settings: liposome (LIPGLO) assay, 150 μM ATP, 5 nM enzyme
T2 construct: Full length human DGKα and DGKζ, each expressed containing a TVMV-cleavable C-terminal Hexa-His tag; made in house; host or cells: Sf9 insect cells, baculovirus (Bac-to-Bac)
Experimental: as §1, §2, §3, §4, §5, §6

T1 sequence (P23743 whole entry): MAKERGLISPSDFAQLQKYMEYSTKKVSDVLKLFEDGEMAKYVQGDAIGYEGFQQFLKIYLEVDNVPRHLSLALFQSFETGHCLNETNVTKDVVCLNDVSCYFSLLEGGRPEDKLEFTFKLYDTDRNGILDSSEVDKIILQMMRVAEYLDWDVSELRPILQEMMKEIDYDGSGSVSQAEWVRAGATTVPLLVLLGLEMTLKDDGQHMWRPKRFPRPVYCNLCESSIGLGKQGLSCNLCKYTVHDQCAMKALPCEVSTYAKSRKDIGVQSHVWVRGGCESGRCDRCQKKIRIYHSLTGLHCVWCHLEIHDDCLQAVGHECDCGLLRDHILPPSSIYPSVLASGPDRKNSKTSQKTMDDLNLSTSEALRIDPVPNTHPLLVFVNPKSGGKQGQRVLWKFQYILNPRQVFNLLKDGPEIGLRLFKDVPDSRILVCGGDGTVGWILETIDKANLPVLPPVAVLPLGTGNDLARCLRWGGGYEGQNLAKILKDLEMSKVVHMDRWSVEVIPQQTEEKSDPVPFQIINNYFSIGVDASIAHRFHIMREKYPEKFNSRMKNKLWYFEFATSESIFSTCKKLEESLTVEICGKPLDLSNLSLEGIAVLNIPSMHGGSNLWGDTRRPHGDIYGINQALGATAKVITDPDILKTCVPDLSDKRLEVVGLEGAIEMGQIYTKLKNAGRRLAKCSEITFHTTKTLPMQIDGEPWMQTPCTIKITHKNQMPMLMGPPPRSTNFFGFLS
T2 sequence (Q13574 1-929 isoform Q13574-4): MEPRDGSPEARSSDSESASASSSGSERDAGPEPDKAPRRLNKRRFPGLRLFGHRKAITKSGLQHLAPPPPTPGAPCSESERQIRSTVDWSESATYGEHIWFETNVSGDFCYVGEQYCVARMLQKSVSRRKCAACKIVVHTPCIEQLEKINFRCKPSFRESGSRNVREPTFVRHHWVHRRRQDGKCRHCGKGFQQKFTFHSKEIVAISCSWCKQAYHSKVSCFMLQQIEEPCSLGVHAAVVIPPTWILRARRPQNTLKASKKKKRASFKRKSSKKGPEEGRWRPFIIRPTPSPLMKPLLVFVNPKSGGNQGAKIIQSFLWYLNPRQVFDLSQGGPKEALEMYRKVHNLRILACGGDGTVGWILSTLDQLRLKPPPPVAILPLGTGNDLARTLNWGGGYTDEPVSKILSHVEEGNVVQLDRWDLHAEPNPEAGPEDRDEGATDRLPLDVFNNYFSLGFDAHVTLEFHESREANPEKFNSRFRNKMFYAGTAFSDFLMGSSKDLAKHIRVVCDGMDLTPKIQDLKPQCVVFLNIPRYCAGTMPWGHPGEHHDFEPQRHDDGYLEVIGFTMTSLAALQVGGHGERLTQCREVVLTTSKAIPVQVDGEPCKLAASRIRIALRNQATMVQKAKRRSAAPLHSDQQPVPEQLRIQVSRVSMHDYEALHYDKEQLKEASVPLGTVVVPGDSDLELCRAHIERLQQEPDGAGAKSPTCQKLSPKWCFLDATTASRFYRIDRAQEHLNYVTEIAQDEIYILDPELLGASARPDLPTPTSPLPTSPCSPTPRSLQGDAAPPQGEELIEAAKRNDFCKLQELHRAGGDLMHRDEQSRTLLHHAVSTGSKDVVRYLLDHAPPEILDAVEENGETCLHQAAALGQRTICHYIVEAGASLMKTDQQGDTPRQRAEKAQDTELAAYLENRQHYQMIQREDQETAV

SMILES | IC50 (DGKα) | IC50 (DGKζ)
Cc1cc(F)cc(CN2CCN(c3c(-c4ccncc4)c(=O)n(C)c4ccc(F)cc34)CC2)c1 [Example 2, 6-fluoro-4-{4-[(3-fluoro-5-methylphenyl)methyl]piperazin-1-yl}-1-methyl-3-(pyridin-4-yl)-1,2-dihydroquinolin-2-one] | 0.051 µM | 35 µM
Cn1c(=O)c([N+](=O)[O-])c(N2CCN(Cc3cccc(F)c3)CC2)c2cc(F)ccc21 [Example 1, 6-fluoro-4-{4-[(3-fluorophenyl)methyl]piperazin-1-yl}-1-methyl-3-nitro-1,2-dihydroquinolin-2-one] | 0.0073 µM | 41 µM
Cn1c(=O)c([N+](=O)[O-])c(N2CCN(Cc3ccccc3)C(=O)C2)c2cc(F)ccc21 [Example 5, 4-(4-benzyl-3-oxopiperazin-1-yl)-6-fluoro-1-methyl-3-nitro-1,2-dihydroquinolin-2-one] | 0.5 µM | > 240 µM
Cn1c(=O)c(CO)c(N2CCN(C(c3ccccc3)c3ccccc3)CC2)c2ccccc21 [Example 11, 4-[4-(diphenylmethyl)piperazin-1-yl]-3-(hydroxymethyl)-1-methyl-1,2-dihydroquinolin-2-one] | 90 µM | > 240 µM
COc1ccc2c(c1)c(N1CCN(Cc3cccc4ccccc34)CC1)c([N+](=O)[O-])c(=O)n2C [Example 8, 6-methoxy-1-methyl-4-{4-[(naphthalen-1-yl)methyl]piperazin-1-yl}-3-nitro-1,2-dihydroquinolin-2-one] | 39 µM | 82 µM
C[C@@H]1CN(c2cc(=O)n(C)c3ccc(C#N)cc23)[C@@H](C)CN1C(c1ccc(F)cc1)c1ccc(F)cc1 (stereo in doubt) [Example 7, 4-[(2S,5R)-4-[bis(4-fluorophenyl)methyl]-2,5-dimethylpiperazin-1-yl]-1-methyl-2-oxo-1,2-dihydroquinoline-6-carbonitrile] | 1.3 µM | > 250 µM
C[C@@H]1CN(c2c(C#N)c(=O)n(C)c3ccccc23)[C@@H](C)CN1C(c1ccc(F)cc1)c1ccc(F)cc1 (stereo in doubt) [Example 6, 4-[(2S,5R)-4-[bis(4-fluorophenyl)methyl]-2,5-dimethylpiperazin-1-yl]-1-methyl-2-oxo-1,2-dihydroquinoline-3-carbonitrile] | 0.7 µM | > 27 µM
CCn1ccc2c(CN3CCN(c4c([N+](=O)[O-])c(=O)n(C)c5ccc(F)cc45)CC3)cccc21 [Example 4, 4-{4-[(1-ethyl-1H-indol-4-yl)methyl]piperazin-1-yl}-6-fluoro-1-methyl-3-nitro-1,2-dihydroquinolin-2-one] | 0.15 µM | 7.9 µM
